Assay results reported in patent publication US20230348426A1, “OXOPYRROLIDINE FPR2 AGONISTS” (Bristol-Myers Squibb Company, priority 2020, published 2023).

Assays:
human FPR1 = human FPR1 (Homo sapiens (Human), UniProt P21462); assay: FPR1 cyclic adenosine monophosphate (cAMP) assay; type: cell-based; conditions: CHO cells overexpressing human FPR1; forskolin 10 µM; inhibition of cAMP production; read-out: hFPR1 cAMP EC50
Method in brief: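 Human FPR1-expressing CHO cells were used at 4,000 per well, with compound at 0.020 nM–100 µM in 1% DMSO. Potency came from a 4-parameter logistic fit.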

human FPR2 = human FPR2 (Homo sapiens (Human), UniProt P25090); assay: FPR2 cyclic adenosine monophosphate (cAMP) assay; type: cell-based; conditions: CHO cells overexpressing human FPR2; forskolin 5 µM; inhibition of cAMP production; read-out: hFPR2 cAMP2 EC50
Sequence of human FPR2 (P25090 whole entry): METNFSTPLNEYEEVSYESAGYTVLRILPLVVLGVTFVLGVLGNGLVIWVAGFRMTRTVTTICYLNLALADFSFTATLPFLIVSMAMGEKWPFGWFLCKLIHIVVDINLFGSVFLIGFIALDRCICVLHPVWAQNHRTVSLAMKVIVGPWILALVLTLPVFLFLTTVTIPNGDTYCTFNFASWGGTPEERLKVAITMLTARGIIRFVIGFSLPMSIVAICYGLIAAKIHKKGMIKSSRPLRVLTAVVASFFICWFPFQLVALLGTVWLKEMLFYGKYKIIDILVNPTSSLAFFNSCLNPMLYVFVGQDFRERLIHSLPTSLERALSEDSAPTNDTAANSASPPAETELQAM
Method in brief: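 Inhibition of forskolin-driven (5 µM) cAMP, with 200 µM IBMX, measured in human FPR2-expressing CHO cells, 2,000 per well, 30 min at room temperature; compounds tested 0.020 nM to 100 µM in 1% DMSO. HTRF 665/590 ratio converted to cAMP via calibration curve, then 4-parameter fit.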

Sequence of human FPR1 (P21462 whole entry): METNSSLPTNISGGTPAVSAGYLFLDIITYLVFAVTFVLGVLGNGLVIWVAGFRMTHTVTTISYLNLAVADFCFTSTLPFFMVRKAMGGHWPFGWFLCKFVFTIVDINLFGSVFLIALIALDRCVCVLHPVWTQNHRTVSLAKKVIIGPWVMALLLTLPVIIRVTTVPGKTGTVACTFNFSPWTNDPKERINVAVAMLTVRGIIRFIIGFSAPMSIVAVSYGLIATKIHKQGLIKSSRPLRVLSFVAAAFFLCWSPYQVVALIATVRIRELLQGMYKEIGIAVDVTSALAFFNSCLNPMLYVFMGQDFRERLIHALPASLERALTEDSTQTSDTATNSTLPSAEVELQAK

| EC50 (human FPR1) [nM] | EC50 (human FPR2) [nM] | Compound |
| --- | --- | --- |
| 4100 | 23 | COc1cc(F)c([C@@H]2CN(c3c(F)cccc3C#N)C(=O)[C@H]2NC(=O)c2ccc(Cl)cc2)c(F)c1 [Example 341] |
| 67 | 4.5 | COc1cc(F)c([C@@H]2CN(c3cccn(CCO)c3=O)C(=O)[C@H]2NC(=O)c2ccc(OC(F)(F)F)cc2)c(F)c1 [Example 174] |
| 570 | 15 | CCn1cc(C)c(C)c(N2C[C@@H](c3c(F)cc(OC)cc3F)[C@H](NC(=O)c3ccc(OC(F)F)cc3)C2=O)c1=O [Example 642] |
| 23 | 6.2 | CCn1cccc(N2C[C@@H](c3ccc(OC)cc3F)[C@H](NC(=O)c3ccc(OC(F)F)cc3)C2=O)c1=O [Example 226] |
| 530 | 31 | COc1cc(F)c([C@H]2[C@H](NC(=O)c3ccc(OC(F)F)cc3)C(=O)N(c3cncn(CC(F)F)c3=O)[C@H]2C)c(F)c1 [Example 555] |
| 530 | 7.2 | COc1cc(F)c([C@@H]2CN(c3nc(N4C[C@H]5C[C@@H]4CO5)ccc3F)C(=O)[C@H]2NC(=O)c2ccc(OC(F)F)cc2)c(F)c1 [Example 256] |
| 950 | 6.8 | COc1cc(F)c([C@@H]2CN(c3cc(C)cn(C)c3=O)C(=O)[C@H]2NC(=O)c2ccc(OC(F)F)cc2)c(F)c1 [Example 244] |
| 1600 | 4.3 | COc1cc(F)c([C@@H]2CN(c3cc(C(F)(F)F)cn(C)c3=O)C(=O)[C@H]2NC(=O)c2ccc(OC(F)F)cc2)c(F)c1 [Example 168] |
| 1.1 | 6.8 | COCC(C(=O)N(C)C)n1cccc(N2C[C@@H](c3ccc(Cl)cc3)[C@H](NC(=O)c3ccc(OC(F)(F)F)cc3)C2=O)c1=O (some centres unmarked) [Example 245] |
| 160 | 5.2 | COc1cc(F)c([C@@H]2CN(c3c(Cl)ccn(C)c3=O)C(=O)[C@H]2NC(=O)c2ccc(Cl)cc2)c(F)c1 [Example 196] |
| 2.6 | 10 | COCC(C(=O)N(C)C)n1cccc(N2C[C@@H](c3ccc(Cl)cc3)[C@H](NC(=O)c3ccc(OC(F)F)cc3)C2=O)c1=O (some centres unmarked) [Example 317] |
| 92 | 4.7 | COc1cc(F)c([C@@H]2CN(c3cccn(CC(C)(CO)CO)c3=O)C(=O)[C@H]2NC(=O)c2ccc(OC(F)F)cc2)c(F)c1 [Example 179] |
| 840 | 0.9 | COc1cc(F)c([C@@H]2CN(c3cccc(C4CCCNC4)n3)C(=O)[C@H]2NC(=O)c2ccc(OC(F)F)cc2)c(F)c1 (some centres unmarked) [Example 718] |
| 560 | 32 | COc1cc(F)c([C@@H]2CN(CC3CC3)C(=O)[C@H]2NC(=O)c2ccc(OC(F)(F)F)cc2)c(F)c1 [Example 20] |
| 7.7 | 63 | COc1cc(F)c([C@@H]2CN(c3ccc4n(c3=O)CCOC4=O)C(=O)[C@H]2NC(=O)c2ccc(OC(F)(F)F)cc2)c(F)c1 [Example 667] |
| 150 | 3.8 | COc1cc(F)c([C@@H]2CN(c3nc(NC(C)=O)ccc3F)C(=O)[C@H]2NC(=O)c2ccc(OC(F)F)cc2)c(F)c1 [Example 146] |
| 90 | 5 | COc1cc(F)c([C@@H]2CN(c3cccn(CC(F)(F)F)c3=O)C(=O)[C@H]2NC(=O)c2ccc(OC(F)(F)F)cc2)c(F)c1 [Example 191] |
| 130 | 5.2 | COc1cc(F)c([C@@H]2CN(c3nc(N4CCC(O)C4=O)ccc3F)C(=O)[C@H]2NC(=O)c2ccc(OC(F)F)cc2)c(F)c1 (some centres unmarked) [Example 199] |
| 0.8 | 1.2 | COc1cc(F)c([C@@H]2CN(c3c(C)ccn(C4CCC4)c3=O)C(=O)[C@H]2NC(=O)c2ccc(OC(F)(F)F)cc2)c(F)c1 [Example 458] |
| 210 | 8 | COCCn1cccc(N2C[C@@H](c3c(F)cc(OC)cc3F)[C@H](NC(=O)c3ccc(C(F)(F)F)cc3)C2=O)c1=O [Example 277] |
| 39 | 9.5 | COc1cc(F)c([C@@H]2CN(c3cccnc3OCCO)C(=O)[C@H]2NC(=O)c2ccc(OC(F)(F)F)cc2)c(F)c1 [Example 396] |
| 14 | 1.7 | COCC(CO)n1nccc(N2C[C@@H](c3c(F)cc(OC)cc3F)[C@H](NC(=O)c3ccc(OC(F)F)cc3)C2=O)c1=O (some centres unmarked) [Example 476] |
| 2000 | 2.2 | COc1cc(F)c([C@@H]2CN(c3nc(C4CCN(C)CC4)ccc3F)C(=O)[C@H]2NC(=O)c2ccc(OC(F)F)cc2)c(F)c1 [Example 556] |
| 190 | 2.8 | COc1ccc([C@@H]2CN(c3ccnn(CCC(F)(F)F)c3=O)C(=O)[C@H]2NC(=O)c2ccc(OC(F)F)cc2)cc1 [Example 645] |
| 0.8 | 3.4 | COCC(C(=O)N1CCOCC1)n1ccc(C)c(N2C[C@@H](c3c(F)cc(OC)cc3F)[C@H](NC(=O)c3ccc(OC(F)F)cc3)C2=O)c1=O (some centres unmarked) [Example 131] |

| EC50 (human FPR1) [nM] | EC50 (human FPR2) [nM] | Compound |
| --- | --- | --- |
| 2 | 1.1 | COCCn1ncc(C)c(N2C[C@@H](c3c(F)cc(OC)cc3F)[C@H](NC(=O)c3ccc(OC(F)(F)F)cc3)C2=O)c1=O [Example 471] |
| 6.5 | 7.4 | COc1ccc([C@@H]2CN(c3ccnn(CC(F)F)c3=O)C(=O)[C@H]2NC(=O)c2ccc(OC(F)F)cc2)c(F)c1 [Example 620] |
| 5.5 | 5.8 | COc1cc(F)c([C@@H]2CN(c3c(C)ccn(Cc4cc(C)no4)c3=O)C(=O)[C@H]2NC(=O)c2ccc(OC(F)F)cc2)c(F)c1 [Example 579] |
| 5.9 | 2.4 | COc1cc(F)c([C@@H]2CN(c3c(C)ccn(CCC(F)(F)F)c3=O)C(=O)[C@H]2NC(=O)c2ccc(Cl)cc2)c(F)c1 [Example 611] |
| 0.2 | 3.5 | COCC(CO)n1ccc(C)c(N2C[C@@H](c3ccc(OC)cc3)[C@H](NC(=O)c3ccc(OC(F)(F)F)cc3)C2=O)c1=O (some centres unmarked) [Example 449] |
| 42 | 5.7 | COCC(CO)n1cccc(N2C(=O)[C@@H](NC(=O)c3ccc(OC(F)F)cc3)[C@H](c3c(F)cc(OC)cc3F)[C@@H]2C)c1=O (some centres unmarked) [Example 217] |
| 1 | 1 | COc1cc(F)c([C@@H]2CN(c3c(C)ccn(C(F)(F)CO)c3=O)C(=O)[C@H]2NC(=O)c2ccc(OC(F)(F)F)cc2)c(F)c1 [Example 490] |
| 3 | 6.8 | Cc1ccn(CC(F)F)c(=O)c1N1C[C@@H](c2ccc(Cl)cc2)[C@H](NC(=O)c2ccc(OC(F)F)cc2)C1=O [Example 415] |
| 1.4 | 14 | COc1cc(F)c([C@@H]2CN(c3c(C)ccn(CC(O)C4CC4)c3=O)C(=O)[C@H]2NC(=O)c2ccc(OC(F)F)cc2)c(F)c1 (some centres unmarked) [Example 685] |
| 22 | 10 | COCCn1cccc(N2C[C@@H](c3c(F)cc(OC)cc3F)[C@H](NC(=O)c3ccc(OC(F)(F)F)cc3)C2=O)c1=O [Example 302] |
| 140 | 5.8 | COc1cc(F)c([C@@H]2CN(c3cccn(CCO)c3=O)C(=O)[C@H]2NC(=O)c2ccc(OC(F)F)cc2)c(F)c1 [Example 219] |
| 2300 | 35 | COc1cc(F)c([C@@H]2CN(c3cccnc3C#N)C(=O)[C@H]2NC(=O)c2ccc(OC(F)(F)F)cc2)c(F)c1 [Example 21] |
| 420 | 3 | COCCN1CCCC(N2C[C@@H](c3c(F)cc(OC)cc3F)[C@H](NC(=O)c3ccc(OC(F)(F)F)cc3)C2=O)C1=O (some centres unmarked) [Example 484] |
| 670 | 9.9 | COc1cc(F)c([C@@H]2CN(c3cn(C)nc3OC)C(=O)[C@H]2NC(=O)c2ccc(Cl)cc2)c(F)c1 [Example 629] |
| 8 | 9 | COCC(C(=O)N(C)C)n1cccc(N2C[C@@H](c3ccc(OC)cc3F)[C@H](NC(=O)c3ccc(OC(F)F)cc3)C2=O)c1=O (some centres unmarked) [Example 428] |
| 200 | 10 | CCn1cccc(N2C[C@@H](c3c(F)cc(OC)cc3F)[C@H](NC(=O)c3ccc(C#N)cc3)C2=O)c1=O [Example 319] |
| 9.3 | 4.6 | COCC(CO)n1cccc(N2C(=O)[C@@H](NC(=O)c3ccc(OC(F)(F)F)cc3)[C@H](c3c(F)cc(OC)cc3F)[C@@H]2C)c1=O (some centres unmarked) [Example 175] |
| 13 | 3.1 | COc1ccc([C@@H]2CN(c3cccn(CC(F)F)c3=O)C(=O)[C@H]2NC(=O)c2ccc(OC(F)(F)F)cc2)cc1 [Example 120] |
| 2200 | 2.1 | COc1cc(F)c([C@H]2[C@H](NC(=O)c3ccc(OC(F)F)cc3)C(=O)N(c3cccc(C4CCCN(CCO)C4)n3)[C@H]2C)c(F)c1 (some centres unmarked) [Example 515] |
| 250 | 9.8 | COc1cc(F)c([C@@H]2CN(c3cccn(CCN4CCS(=O)(=O)CC4)c3=O)C(=O)[C@H]2NC(=O)c2ccc(OC(F)F)cc2)c(F)c1 [Example 306] |
| 11 | 11 | COc1ccc([C@@H]2CN(c3ccnn(CC(F)F)c3=O)C(=O)[C@H]2NC(=O)c2ccc(OC(F)F)cc2)cc1 [Example 691] |
| 1 | 2.2 | COc1ccc([C@@H]2CN(c3c(C)ccn(CCC(F)(F)F)c3=O)C(=O)[C@H]2NC(=O)c2ccc(OC(F)F)cc2)cc1 [Example 387] |
| 1.5 | 4.5 | COc1ccc([C@@H]2CN(c3c(C)ccn(C4CCC4)c3=O)C(=O)[C@H]2NC(=O)c2ccc(OC(F)F)cc2)c(F)c1 [Example 689] |
| 1.4 | 3.1 | COc1ccc([C@@H]2CN(c3c(C)ccn(CC(F)F)c3=O)C(=O)[C@H]2NC(=O)c2ccc(OC(F)(F)F)cc2)cc1 [Example 121] |
